# Where no end group is shown, it is not given here.
# How the values were obtained:
# [1] = system: hyperalgesia of the paw; test: Randall-Selitto test, painful threshold on compression of the paw made hyperalgesic with brewer's yeast; format: in vivo, rats; settings: rat, brewer's yeast 10 mg/rat, product injected in the paw, after 3 hours, vs irritant alone
# From the text: With regard to the biological activity of the peptide mixtures obtained by enzymatic hydrolysis of lysozyme, like many of the peptides isolated at the pure state and/or reproduced through synthesis, it is observed, as previously reported, that they lack the bacteriolytic activity typical of the integral lysozyme structure, whereas they present important pharmacological and therapeutic properties. It was therefore possible for example to evidence a marked analgesic activity of numerous peptides, by testing their anti-nociceptive effects on laboratory animals using the well-known Randall-Selitto method.
# In groups of 5-10 rats, hyperalgesia of the paw is induced by administering an irritant agent, for example brewer's yeast (10 mg/rat), into the planter aponeurosis and at the same time injecting the product under test at different doses. One group of rats is treated with the irritant agent alone. At intervals, in particular after 3 hours, the painful threshold on compression of the edematous paw is measured, i.e. the minimum pressure (in g) causing the sudden withdrawal of the paw of the animal.
# The results are expressed as percentage increase in the mean painful threshold compared to the paw treated with the algogenic agent alone (without the drug). As an example, the data relative to the peptide mixture denominated "Fraction P.2" of chromatographic origin (See Scheme 1) are reported, as well as the individual peptides (I), (II) and (III).
# [2] = system: herpes simplex Type 1; test: herpes simplex virus plaque formation on Vero cell monolayers; format: cell-based; settings: herpes simplex Type 1, Vero cells, 72 hours' incubation
# Protocol: Yet other example, the mixture and the peptides of the present invention resulted active in an antiviral sense in numerous cases. They were submitted to various tests to verify their influence on the capacity of the herpes simplex virus to infect and form plaques on monolayer cell cultures. To this purpose, a viral strain of herpes simplex Type 1 at suitable concentration was added to monolayers of Vero cells (Flow). After being in contact for 1 hour, the virus was removed and the monolayer washed and then covered with fresh culture medium […] (Flow), adding at the end suitable quantities of the substance under test. After 72 hours' incubation, the plates were coloured with neutral red and the visible plaques counted. […] Similar results were obtained with a peptide fraction isolated in an analogous manner after hydrolysis of lysozyme with trypsin and chymotrypsin. Even more surprising results were obtained with peptides such as (I) or (III) which resulted capable of inducing analogous reductions in the viral plaque-forming units at considerably lower concentrations (0.1-1 mg/ml).
# [3] = system: cell colony-forming capacity; format: cell-based
# [4] = format: physicochemical
# Protocol: Having obtained the desired peptide sequence, it is then necessary to proceed with the splitting from the solid support and deprotection of the residual functional groups, which is carried out by action of gaseous hydrobromic acid on the peptide-resin suspension, working in trifluoroacetic acid and in presence of adequate quantities of anisole.
Substance,Δ% of the algogenic threshold ([1]; dose 1 mg/rat),Δ% of the algogenic threshold ([1]; dose 2 mg/rat),Δ% of the algogenic threshold ([1]; dose 4 mg/rat),concentration inducing analogous reductions in the viral plaque-forming units [2],cytotoxic effects (cell colony-forming capacity) [3],inhibition of the viral capacity to form plaques ([2]; 5 mg/ml),Δ% of the algogenic threshold ([1]; dose 0.5 mg/rat),Δ% of the algogenic threshold ([1]; dose 0.75 mg/rat),solubility in water [4]
NTQATNR [peptide (III)],30%,60%,100%,0.1-1 mg/ml,devoid of cytotoxic effects,,,,
lysozyme: small globular protein of 129 amino acid residues extracted from hen egg-white,,,,,,75%,,,
NTQATNRNTDGSTDY [peptide (I)],,120%,,0.1-1 mg/ml,devoid of cytotoxic effects,,,,
NTDGSTDY [peptide (II)],90%,,,,,,30%,60%,very soluble in water

# From US4784988A, “Peptides correlated to lysozyme” (Spa Societa' Prodotti Antibiotici S.p.A., priority 1985, dated 1988)
